Tests used:
[1] = target: T1, mTRPA1 (Mus musculus, UniProt Q8BLA8); experiment: IonWorks Barracuda (IWB) automated patch clamp, TRPA1 inhibitory activity; type: cell-based; settings: HEK293 cells stably expressing mTRPA1, current induced by AITC, amplitude at +100 mV; read-out: IC50 (inhibition activity on TRPA1)
T1 construct: expressed in transfected cells
Summary of the method: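 HEK293 cells stably expressing mouse TRPA1, perforated-patch whole-cell recording (amphotericin B) on IonWorks Barracuda; holding 0 mV, −100 to +100 mV ramp over 300 ms every 10 s. Current evoked by 300 µM AITC, leak-subtracted, amplitude taken at +100 mV; IC50 from fitted dose-effect curves, HC030031 as plate reference.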

[2] = system: acetic acid induced writhing in ICR mice; experiment: acetic acid induced writhing pain model in ICR mice; type: in vivo, mouse; settings: for writhing frequency: 30 mg/kg single oral administration 1 h before 0.6% acetic acid i.p., 20 minutes observation, compared with G1 model group, FIG. 6; for efficacy compared with aspirin: 30 mg/kg single oral administration vs 200 mpk of aspirin
From the text: The pharmacological effect of compounds prepared in some examples of the present invention on an acetic acid induced writhing pain model in ICR mice was investigated.
The acetic acid writhing pain model in mice is a classic pharmacological model for evaluating the treatment of drugs for visceral pain and inflammatory pain.
• Animal species and strains: ICR mice • Medical treatment history: None • Gender, age, and weight: Male, 8 weeks old, 20-25 g • Breeder/Supplier: Shanghai SLAC Laboratory Animal Co., Ltd • Adaptation period: no less than 7 days • Room: Regular level room • Room temperature: 19-26° C. • Relative humidity: 40-70% • Lighting cycle: fluorescent lighting, 12 hours of illumination (08:00-20:00) and 12 hours of no illumination • Animal feeding: 5 animals/cage divided by group • Food: Free intake (irradiated feed, Shanghai SLAC Laboratory Animal Co., Ltd, China) • Water: Free intake (Mol Ultrapure Water System filtered municipal tap water)
A total of 70 mice were introduced from Shanghai SLAC Laboratory Animal Co., Ltd. The animals were SPF grade and purchased at approximately 7 weeks old.
Animals are randomly assigned to each treatment group according to the weight using the BioBook randomization function to achieve an approximate average weight for each group and reduce inter group bias.
3.1 Within 12 hours before use, a glacial acetic acid solution with a mass volume fraction of 0.6% was prepared with 0.9% physiological saline.
3.2. Administration treatment: G1 group animals were orally administered 0.9% physiological saline; G2-G6 were specifically administered the compounds of the present invention referred to the specific dosage regimen in Table 9.
3.3. Modeling treatment: G1 group animals were administered 0.9% physiological saline by gavage, and after 1 hour, 0.6% glacial acetic acid was injected intraperitoneally to induce pain response (10 ml/kg). G2-G8 group animals were injected intraperitoneally with 0.6% glacial acetic acid to induce pain response (10 ml/kg) after different groups were administered according to the regimen designed in Table 9.
3.4 Measurement: The weight of all mice was recorded before modeling treatment. A torsion test was recorded immediately after acetic acid treatment. The behavioral observation period lasted for 20 minutes. Writhes were counted by a single preson (one standard writhe includes abdominal muscle contraction, muscle extension, and hind limb extension). After testing, the animals were euthanized with CO2.
3.5 Experimental observation: Animal health observation and general response to drug treatment were conducted daily. All abnormal health and behavioral behaviors were recorded.
The experimental data was calculated as mean±standard error. Statistical analysis was performed using Graphpad Prism, SPSS, or Sigmaplot software. The specific data is presented in the form of graphs. P<0.05 is considered to have statistical differences.

T1 sequence (Q8BLA8 whole entry): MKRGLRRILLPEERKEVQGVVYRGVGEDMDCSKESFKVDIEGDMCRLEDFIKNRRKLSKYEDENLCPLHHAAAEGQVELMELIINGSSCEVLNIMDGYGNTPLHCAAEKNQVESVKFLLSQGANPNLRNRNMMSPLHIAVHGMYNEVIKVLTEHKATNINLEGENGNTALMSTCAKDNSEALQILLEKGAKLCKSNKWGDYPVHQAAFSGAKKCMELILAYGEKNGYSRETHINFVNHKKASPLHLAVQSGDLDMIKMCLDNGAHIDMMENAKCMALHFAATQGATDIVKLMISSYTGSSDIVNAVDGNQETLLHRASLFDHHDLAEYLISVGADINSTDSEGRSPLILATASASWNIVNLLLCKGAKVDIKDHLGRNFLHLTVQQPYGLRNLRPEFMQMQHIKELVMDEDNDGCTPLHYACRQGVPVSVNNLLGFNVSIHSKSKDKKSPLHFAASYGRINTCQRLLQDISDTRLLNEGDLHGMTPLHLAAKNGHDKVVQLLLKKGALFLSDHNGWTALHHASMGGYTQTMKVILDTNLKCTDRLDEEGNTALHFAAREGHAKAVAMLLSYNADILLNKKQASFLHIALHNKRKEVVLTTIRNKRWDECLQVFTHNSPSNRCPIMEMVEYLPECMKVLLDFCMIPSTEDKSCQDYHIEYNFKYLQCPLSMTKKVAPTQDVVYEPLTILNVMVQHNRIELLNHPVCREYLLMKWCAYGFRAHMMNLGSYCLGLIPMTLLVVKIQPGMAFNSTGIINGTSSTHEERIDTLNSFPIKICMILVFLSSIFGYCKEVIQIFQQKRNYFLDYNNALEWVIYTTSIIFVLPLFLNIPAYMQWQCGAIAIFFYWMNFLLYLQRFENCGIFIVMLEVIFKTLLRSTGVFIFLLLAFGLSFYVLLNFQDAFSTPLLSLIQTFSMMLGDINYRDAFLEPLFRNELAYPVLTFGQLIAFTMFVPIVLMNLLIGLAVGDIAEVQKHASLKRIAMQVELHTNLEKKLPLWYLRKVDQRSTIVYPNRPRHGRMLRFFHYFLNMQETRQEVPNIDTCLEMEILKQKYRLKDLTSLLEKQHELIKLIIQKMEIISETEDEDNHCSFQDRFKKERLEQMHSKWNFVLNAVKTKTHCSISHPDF

Row | IC50 [1] [µM] | SMILES | writhing frequency [2] | efficacy compared with aspirin [2]
1 | < 1 | CNCc1ccc(-c2nccs2)c(NS(=O)(=O)c2ccccc2)c1 [IA-51, N-(5-((methylamino)methyl)-2-(thiazol-2-yl)phenyl)benzenesulfonamide] | significantly reduce | basically equivalent to that of 200 mpk of aspirin
2 | < 1 | CNCc1ccc(NS(=O)(=O)c2ccsc2)c(-c2ccco2)c1 [IA-30] | significantly reduce | basically equivalent to that of 200 mpk of aspirin
3 | < 1 | CNCc1ccc(-c2cc[nH]n2)c(NS(=O)(=O)c2ccccc2)c1 [IA-55, N-(5-((methylamino)methyl)-2-(1H-pyrazol-3-yl)phenyl)benzenesulfonamide] | significantly reduce | basically equivalent to that of 200 mpk of aspirin
4 | < 1 | NCc1ccc(NS(=O)(=O)c2ccsc2)c(-c2ccco2)c1 [ID-5] | significantly reduce | basically equivalent to that of 200 mpk of aspirin
